Data published in US20240391931A1 (Bristol-Myers Squibb Company, priority 2021, published 2024).

Key:
HER2 WT = target: T1, HER2 WT (Homo sapiens, UniProt P04626); test: Enzymatic assay HER2 WT (method a); assay type: biochemical; settings: [HER2 WT]=12.5 nM, [ATP]=25 μM, [Peptide 22]=1 μM
T1 construct: purchased ProQinase, Freiburg, Germany ERBB2 0108-0000-1
Method: (§1) A 2× stock solution of HER2 WT (ERBB2 0108-0000-1; ProQinase, Freiburg, Germany) corresponding to method a, was prepared as described below. Alternatively, a 2× stock solution of HER2YVMA (custom purification; Viva biotech, Shanghai, China) corresponding to method b, was prepared as described below. For method c, a 2× stock of EGFR (ERBB1 PR7295B, Thermo Fisher, Carlsbad, CA) was prepared as described below. All 2× solutions were prepared in buffer containing 50 mM HEPES, pH 7.5, 10 mM MnCl2, MgCl2, 0.005% Tween 20, 1 mM TCEP. 25 ul of 2× enzyme solution was added to a Seahorse low volume 384-well polypropylene assay plate (201288-100, Seahorse Bioscience, Chicopee, MA) containing 1 μl of compound serially diluted in 50% DMSO. To initiate the reaction, 25 μl of solution containing 2× final concentration of ATP and ProfilerPro Peptide 22 (760366, Perkin Elmer Hopkinton, MA) was added to each well. The reactions were separated on an LC3000 (Caliper Life Sciences) or a LabChip EZReader (Perkin Elmer) in kinetic mode.
(§2) At the conclusion of each assay, the data were exported from the instrument as a .rda file (LC3000) and processed in proprietary software, EZReviewer, which determines the percent of substrate converted to product within a given cycle as (P/P+S)*100 by measuring the amplitude of substrate and product peaks. Cycle time varied with amount of compounds tested between 8 and 12 cycles. Initial velocity (0-3600 s) from each reaction was determined from the slope of a plot of percent conversion at each cycle versus time (seconds). Percent inhibition was determined by dividing the slope of each reaction by the uninhibited control using 100*(1-(x/uninhibited control)). IC50 estimates were obtained by plotting the concentration of inhibitor versus percent inhibition in GraphPad Prism (GraphPad Software, San Diego, CA) using log[inhibitor] versus Response (Variable Slope Model); Y=Min+((Max-Min)/(1+((IC50/x)^Hillslope)))
(§3) • a) [HER2 WT]=12.5 nM, [ATP]=25 μM, [Peptide 22]=1 μM (ATP KMapp˜25 μM) • b) [HER2YVMA]=5 nM, [ATP]=25 μM, [Peptide 22]=1 μM (ATP KMapp˜15 μM) • c) [EGFR WT]=2 nM, [ATP]=1 mM, [Peptide 22]=1 μM (ATP KMapp˜25 μM)

EGFR WT = target: T2, EGFR WT (Homo sapiens, UniProt P00533); test: Enzymatic assay EGFR WT (method c); assay type: biochemical; settings: [EGFR WT]=2 nM, [ATP]=1 mM, [Peptide 22]=1 μM
T2 construct: purchased Thermo Fisher, Carlsbad, CA ERBB1 PR7295B
T2 sequence (P00533 25-1210): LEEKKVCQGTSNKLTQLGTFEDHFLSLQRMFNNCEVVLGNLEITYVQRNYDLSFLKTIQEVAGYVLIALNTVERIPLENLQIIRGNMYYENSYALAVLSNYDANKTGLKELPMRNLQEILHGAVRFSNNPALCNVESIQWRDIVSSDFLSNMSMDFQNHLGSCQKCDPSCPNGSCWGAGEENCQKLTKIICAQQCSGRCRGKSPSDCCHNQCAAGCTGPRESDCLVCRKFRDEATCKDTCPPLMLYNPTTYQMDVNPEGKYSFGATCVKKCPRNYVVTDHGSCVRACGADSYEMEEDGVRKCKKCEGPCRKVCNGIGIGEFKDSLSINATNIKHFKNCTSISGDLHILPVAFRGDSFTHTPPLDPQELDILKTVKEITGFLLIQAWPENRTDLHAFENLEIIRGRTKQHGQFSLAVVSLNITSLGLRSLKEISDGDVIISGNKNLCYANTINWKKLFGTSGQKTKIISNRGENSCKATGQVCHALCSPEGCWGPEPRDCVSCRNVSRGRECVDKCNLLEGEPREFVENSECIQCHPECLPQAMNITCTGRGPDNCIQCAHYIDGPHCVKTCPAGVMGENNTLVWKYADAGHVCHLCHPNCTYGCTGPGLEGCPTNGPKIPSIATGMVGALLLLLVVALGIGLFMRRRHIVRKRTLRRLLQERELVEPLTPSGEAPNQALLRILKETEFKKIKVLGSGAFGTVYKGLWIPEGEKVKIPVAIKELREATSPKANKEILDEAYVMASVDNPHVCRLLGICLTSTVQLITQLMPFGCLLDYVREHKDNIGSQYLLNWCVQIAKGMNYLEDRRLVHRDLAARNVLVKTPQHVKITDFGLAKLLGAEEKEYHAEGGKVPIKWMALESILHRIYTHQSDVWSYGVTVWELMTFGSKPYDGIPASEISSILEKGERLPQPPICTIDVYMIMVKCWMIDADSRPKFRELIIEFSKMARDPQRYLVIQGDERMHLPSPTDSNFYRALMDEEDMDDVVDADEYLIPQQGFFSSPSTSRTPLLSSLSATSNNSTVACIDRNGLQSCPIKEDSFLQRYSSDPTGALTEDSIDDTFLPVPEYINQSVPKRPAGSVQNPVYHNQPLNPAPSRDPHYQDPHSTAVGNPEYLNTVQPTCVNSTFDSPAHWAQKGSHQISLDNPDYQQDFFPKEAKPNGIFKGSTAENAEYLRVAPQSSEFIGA
Method: as §1, §2, §3

HER2YVMA = HER2YVMA (Homo sapiens, UniProt P04626, INS775YVMA); test: Enzymatic assay HER2YVMA (method b); assay type: biochemical; design: purchased Viva biotech, Shanghai, China custom purification; settings: [HER2YVMA]=5 nM, [ATP]=25 μM, [Peptide 22]=1 μM
Chain of HER2YVMA (P04626 with tags, fused parts or gaps INS775YVMA): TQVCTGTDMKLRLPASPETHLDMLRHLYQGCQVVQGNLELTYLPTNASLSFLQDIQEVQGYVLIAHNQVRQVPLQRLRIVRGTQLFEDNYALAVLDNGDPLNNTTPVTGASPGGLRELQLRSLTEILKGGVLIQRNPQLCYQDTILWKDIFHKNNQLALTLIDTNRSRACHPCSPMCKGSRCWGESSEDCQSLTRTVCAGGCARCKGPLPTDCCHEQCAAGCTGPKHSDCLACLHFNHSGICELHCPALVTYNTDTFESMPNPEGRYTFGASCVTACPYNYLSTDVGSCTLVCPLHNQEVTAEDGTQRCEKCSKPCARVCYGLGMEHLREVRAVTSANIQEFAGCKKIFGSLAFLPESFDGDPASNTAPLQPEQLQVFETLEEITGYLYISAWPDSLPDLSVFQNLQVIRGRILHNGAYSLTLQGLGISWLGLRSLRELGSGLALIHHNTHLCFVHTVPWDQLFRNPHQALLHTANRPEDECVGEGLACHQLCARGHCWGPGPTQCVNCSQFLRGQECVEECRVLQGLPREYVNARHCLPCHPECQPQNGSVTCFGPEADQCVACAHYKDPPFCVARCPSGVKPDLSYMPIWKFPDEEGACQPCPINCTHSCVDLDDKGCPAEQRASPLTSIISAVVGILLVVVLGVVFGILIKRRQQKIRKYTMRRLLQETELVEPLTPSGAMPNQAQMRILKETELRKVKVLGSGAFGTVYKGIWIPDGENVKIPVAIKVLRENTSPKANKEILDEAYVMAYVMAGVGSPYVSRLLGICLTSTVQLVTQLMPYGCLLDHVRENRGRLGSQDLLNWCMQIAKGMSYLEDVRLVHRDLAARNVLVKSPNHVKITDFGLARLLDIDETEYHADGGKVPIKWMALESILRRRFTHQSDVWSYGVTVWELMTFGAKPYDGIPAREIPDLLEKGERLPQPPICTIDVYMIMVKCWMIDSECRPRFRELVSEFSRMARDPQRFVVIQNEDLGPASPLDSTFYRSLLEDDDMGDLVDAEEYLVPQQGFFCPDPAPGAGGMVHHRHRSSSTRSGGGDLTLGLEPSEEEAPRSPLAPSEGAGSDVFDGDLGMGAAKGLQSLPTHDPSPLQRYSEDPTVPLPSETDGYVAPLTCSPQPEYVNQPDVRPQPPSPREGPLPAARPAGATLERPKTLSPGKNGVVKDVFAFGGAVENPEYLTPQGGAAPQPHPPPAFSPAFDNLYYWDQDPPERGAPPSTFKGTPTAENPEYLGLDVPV
Method: as §1, §2, §3

EGFR = EGFR (Homo sapiens, UniProt P00533); test: EGFR signaling (pEGFR Tyr1068/total EGFR MSD) in A431 cells; assay type: cell-based; design: endogenous in cells; host or cells: A431, N87; settings: for EC50: A431 cells, read-out: A431 pEGFR EC50; for Selectivity A431 EC50/BT474 EC50: ratio A431 pEGFR EC50 to BT474 pHER2 EC50
Chain of EGFR (P00533 25-1210): as the sequence (P00533 25-1210) above
Method: (§4) In addition to the engineered cell lines, the following cell lines were used: BT474 (human breast carcinoma), N87 (human gastric carcinoma), NCI-H1781 (human lung adenocarcinoma), and A431 (human epidermoid carcinoma); all cell lines were obtained from the American Type Culture Collection (ATCC, Manassas, VA). NCI-H1781 were grown in complete RPMI 1640 (Life Technologies, Carlsbad, CA) supplemented with 15% fetal bovine serum (FBS, Life Technologies, Carlsbad, CA) and 1% Penicillin-Streptomycin (P/S, Life Technologies, Carlsbad, CA). N87 cells were grown in complete RPMI 1640 supplemented with 10% FBS and 1% P/S. BT474 and A431 cells were grown in DMEM (Life Technologies, Carlsbad, CA) supplemented with 10% FBS and 1% P/S. All cells were maintained and propagated in a humidified 5% CO2 incubator at 37° C.
A431 Cells were plated in 96-well tissue-culture treated plates in full media for 6 h, then starved with media containing 0.1% FBS for overnight. Media was replaced with low serum media (1% FBS) containing compound at 10, 3.3, 1.1, 0.37, 0.12, 0.041, 0.014, 0.005 μM or DMSO control (0.1%). Cells were incubated for 1.5 hr, then stimulated with 100 ng/mL human EGF (PeproTech, Rocky Hill, NJ) for 10 minutes. Cells were washed with cold PBS, and lysed for 30 min on ice in complete MSD lysis buffer (prepared as described in HER2 Signaling Method); lysates were stored at −70° C. until further analysis. EGFR signaling was evaluated using phospho (Tyr 1068)/total EGFR whole cell lysate kit (Meso-Scale Discovery, Gaithersburg, MD). The phospho EGFR signal was normalized to total EGFR for each sample; results are reported as % DMSO control. The normalized data was fitted using a sigmoidal curve analysis program (Graph Pad Prism version 6) with variable Hill slope to determine EC50 values. The results are provided in Table 4, under column titled “A431-pEGFR EC50”.

[1] = target: T3, HER2 wildtype (WT) protein (Homo sapiens, UniProt P04626); test: HER2 signaling (pHER2 Tyr1248/total HER2 MSD) in BT474 cells; assay type: cell-based; settings: 1.5 hr compound, 1% FBS
T3 construct: BT474 and N87 cell lines which endogenously overexpress the HER2 wildtype (WT) protein; endogenous in cells; host or cells: BT474, N87
T3 sequence (P04626 23-1255): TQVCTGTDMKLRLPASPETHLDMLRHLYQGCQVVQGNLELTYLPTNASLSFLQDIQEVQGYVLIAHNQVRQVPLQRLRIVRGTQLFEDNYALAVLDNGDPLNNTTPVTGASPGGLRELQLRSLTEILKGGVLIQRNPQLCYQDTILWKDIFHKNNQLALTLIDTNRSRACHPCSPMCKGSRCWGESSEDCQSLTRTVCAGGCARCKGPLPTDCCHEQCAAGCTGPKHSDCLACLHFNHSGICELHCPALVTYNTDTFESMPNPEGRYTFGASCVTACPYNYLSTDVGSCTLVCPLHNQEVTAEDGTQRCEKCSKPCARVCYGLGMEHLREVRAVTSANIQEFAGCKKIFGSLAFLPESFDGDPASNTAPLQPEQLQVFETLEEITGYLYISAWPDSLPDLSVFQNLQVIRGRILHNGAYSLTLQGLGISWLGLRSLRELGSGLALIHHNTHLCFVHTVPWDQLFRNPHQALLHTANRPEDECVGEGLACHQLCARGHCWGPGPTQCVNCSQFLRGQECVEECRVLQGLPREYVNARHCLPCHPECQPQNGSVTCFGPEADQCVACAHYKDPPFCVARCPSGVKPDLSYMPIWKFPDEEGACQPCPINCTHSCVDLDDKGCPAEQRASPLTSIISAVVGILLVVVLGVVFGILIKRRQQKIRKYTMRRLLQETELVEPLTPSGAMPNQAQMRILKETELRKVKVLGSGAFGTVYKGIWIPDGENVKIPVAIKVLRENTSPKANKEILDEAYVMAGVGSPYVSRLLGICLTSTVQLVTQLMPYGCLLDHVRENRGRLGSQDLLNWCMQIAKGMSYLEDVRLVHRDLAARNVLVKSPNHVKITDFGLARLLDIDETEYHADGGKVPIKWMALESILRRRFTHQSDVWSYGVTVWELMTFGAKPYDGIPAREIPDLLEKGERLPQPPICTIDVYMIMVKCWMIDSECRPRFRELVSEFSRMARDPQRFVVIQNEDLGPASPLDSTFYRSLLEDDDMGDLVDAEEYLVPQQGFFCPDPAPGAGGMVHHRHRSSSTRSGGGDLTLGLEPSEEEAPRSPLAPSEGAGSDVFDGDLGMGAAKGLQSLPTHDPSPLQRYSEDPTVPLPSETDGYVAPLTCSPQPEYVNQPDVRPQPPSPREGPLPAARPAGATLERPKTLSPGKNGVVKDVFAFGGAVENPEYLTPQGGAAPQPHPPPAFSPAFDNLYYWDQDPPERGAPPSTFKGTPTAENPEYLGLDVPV
Method: as §4
HER2 signaling was assessed in BT474 and N87 cell lines which endogenously overexpress the HER2 wildtype (WT) protein, in NCI-H1781 cells which endogenously expresses a HER2 mutant protein containing a VC insertion in the kinase domain (HER2VC or G776delinsVC), and in engineered cell lines transduced to express the Her2 mutant protein containing the YVMA insertion (Hek293-HER2YVMA and BEAS2B-HER2YVMA).
BT474, N87, and NCI-H1781 were plated in 96-well tissue-culture treated plates (Corning Costar, Sigma-Aldrich) in full media and incubated overnight. Hek293-HER2YVMA and BEAS2B-HER2YVMA cells were plated in 96-well poly-D-lysine treated plates (BD Bioscience, San Jose, CA). For treatment with test compounds, the media was replaced with corresponding low serum media (1% FBS) containing test compound at 1.1, 0.37, 0.12, 0.041, 0.014, 0.005, 0.0014, 0.0005 μM or DMSO control (0.1%). Cells were incubated with compound for 1.5 hr at 37° C. After compound treatment, the media was removed and cells were lysed for 30 min on ice in complete MSD lysis buffer (prepared using MSD base lysis buffer (Meso-Scale Discovery) supplemented with cOmplete, EDTA-free Protease inhibitor cocktail (Roche), Phosphatase Inhibitor Cocktails 2 and 3 (Sigma-Aldrich), and 1 mM PMSF (Sigma-Aldrich)). Lysates were stored at −70° C. until further analysis.
HER2 signaling was evaluated using phospho (Tyr1248)/total ErbB2 whole cell lysate MSD plates (Meso-Scale Discovery, Gaithersburg, MD). The phospho HER2 signal was normalized to total HER2 for each sample; results are reported as % DMSO control. The normalized data was fitted using a sigmoidal curve analysis program (Graph Pad Prism version 6) with variable Hill slope to determine EC50 values.
The HER2 signaling results are provided in Table 4, under columns titled “BT474-pHER2 EC50”, “N87-pHER2 EC50”, and “NCI-H1781-pHER2 EC50”. Hek293-HER2YVMA ins fall under the heading “HEKYVMA-pHER2 EC50”, Ba/F3 HER2YVMA fall under the heading “Ba/F3 YVMA-pHER2 EC50” and BEAS2B-HER2YVMA fall under the heading “BEAS2B YVMA-pHER2 EC50”.

Row | SMILES | IC50 (HER2 WT) [µM] | IC50 (EGFR WT) [µM] | IC50 (HER2YVMA) [µM] | EC50 (EGFR) [µM] | Selectivity A431 EC50/BT474 EC50 (EGFR) | EC50 [1] [µM]
1 | C=CC(=O)N1CCc2c(sc3ncnc(Nc4ccc(Oc5ccc6ncnn6c5)c(C)c4)c23)C1 [Compound 2, 1-(4-((4-([1,2,4]triazolo[1,5-a]pyridin-6-yloxy)-3-methylphenyl)amino)-5,8-dihydropyrido[4′,3′:4,5]thieno[2,3-d]pyrimidin-7(6H)-yl)prop-2-en-1-one] | < 0.1 | 1 to 10 | < 0.1 | – | – | –
2 | Cc1ccc(Oc2ccc(Nc3ncnc4sc5c(c34)CCN(C(=O)/C=C/CN3CC4CCC(C4)C3)C5)cc2C)cn1 [Compound 27] | – | 1 to 10 | – | < 0.1 | B (B: ≥ 20 and < 100) | –
3 | Cc1ccc(Oc2ccc(Nc3ncnc4sc5c(c34)CCN(C(=O)/C=C/CN3CCOC(C)(C)C3)C5)cc2C)cn1 [Compound 28] | < 0.1 | > 10 | 0.1 to 1 | < 0.1 | C (C: ≥ 10 and < 20) | < 0.1
4 | Cc1ccc(Oc2ccc(Nc3ncnc4sc5c(c34)CCN(C(=O)/C=C/CN3CCOCC3(C)C)C5)cc2C)cn1 [Compound 29] | < 0.1 | > 10 | < 0.1 | < 0.1 | C (C: ≥ 10 and < 20) | < 0.1
5 | Cc1ccc(Oc2ccc(Nc3ncnc4sc5c(c34)CCN(C(=O)/C=C/CN3CCOC4(CCC4)C3)C5)cc2C)cn1 [Compound 30] | < 0.1 | > 10 | 0.1 to 1 | 0.1 to 1 | A (A: ≥100) | < 0.1
6 | Cc1ccc(Oc2ccc(Nc3ncnc4sc5c(c34)CCN(C(=O)/C=C/CN3CCOCC34CCC4)C5)cc2C)cn1 [Compound 31] | < 0.1 | > 10 | 0.1 to 1 | 0.1 to 1 | D (D: ≥ 5 and < 10) | < 0.1
7 | Cc1ccc(Oc2ccc(Nc3ncnc4sc5c(c34)CCN(C(=O)/C=C/CN3CCOC[C@@H]3C)C5)cc2C)cn1 [Compound 32] | < 0.1 | > 10 | 0.1 to 1 | 0.1 to 1 | B (B: ≥ 20 and < 100) | < 0.1
8 | Cc1ccc(Oc2ccc(Nc3ncnc4sc5c(c34)CCN(C(=O)/C=C/CN3CC4CC(C4)C3)C5)cc2C)cn1 [Compound 36] | < 0.1 | 1 to 10 | < 0.1 | < 0.1 | D (D: ≥ 5 and < 10) | < 0.1
9 | Cc1cc(Nc2ncnc3sc4c(c23)CCN(C(=O)/C=C/CN2CCOC[C@@H]2C)C4)ccc1Oc1ccc2ncnn2c1 [Compound 79] | 0.1 to 1 | > 10 | 0.1 to 1 | – | – | –
10 | C[C@H]1COCCN1C/C=C/C(=O)N1CCc2c(sc3ncnc(Nc4ccc(Oc5ccc6ncnn6c5)c(Cl)c4)c23)C1 [Compound 90] | 0.1 to 1 | > 10 | 0.1 to 1 | – | – | –
11 | Cc1ccc(Oc2ccc(Nc3ncnc4sc5c(c34)CCN(C(=O)/C=C/CN3CCN4CCC3CC4)C5)cc2C)cn1 [Compound 116] | 1 to 10 | > 10 | 1 to 10 | – | – | –
